Laboratory results reported in patent publication US20040157784A1, “Opiod tannate compositions” (Jame Fine Chemicals, Inc., priority 2003, published 2004).

Test: Solubility of hydrocodone free base in methylene chloride (solvent of the reaction completion test)

SMILES: COc1ccc2c3c1O[C@H]1C(=O)CC[C@H]4[C@@H](C2)N(C)CC[C@]314 [hydrocodone free base]
- soluble to the extent of (methylene chloride): 99.94%
